From US9446267B2, “Products comprising a flavoring agent composition” (SYMRISE AG, priority 2009, dated 2016)
Read-outs that look alike come from different tables or passages of the source.

Experiments:
[1] = L-menthol given a strength of 100; cited from earlier work
[2] = Sensorial assessment of the bitter-sharp note of menthol in toothpaste by a panel of trained experts; type: in vivo; details: for bitter-sharp note of the menthol / bitter perception: flavoring agent composition at 1.2 wt. % in toothpaste, usage conditions, expert panel
Procedure: The flavoring agent compositions obtained in this way were in each case incorporated into a respective standard toothpaste mass with a silicic acid basis in a concentration of 1.2 wt. %, in relation to the overall weight of the resulting toothpaste. The toothpastes were tested by a panel of sensorially trained experts under usage conditions. […] Without the use of anethole in the 2nd formulation the bitter-sharp note clearly emerged and the taste result was perceived overall to be unacceptable.
The flavoring agent compositions obtained in this way were in each case incorporated into a respective standard toothpaste mass with a silicic acid basis in a concentration of 1.2 wt. %, in relation to the overall weight of the resulting toothpaste. The toothpastes were tested by a panel of sensorially trained experts under usage conditions.
(§1) The toothpaste prepared in this way was tested by a panel of sensorially trained experts under usage conditions and compared with the toothpaste containing menthane carboxylic acid-N-(4-methoxyphenyl)-amide (WS-12) according to the 1st formulation of Example 1.2 in respect of the bitter perception and the duration of the cooling sensation of freshness.
The flavoring agent composition obtained in this way was incorporated into a standard toothpaste mass with a silicic acid base in a concentration of 1.2 wt. %, in relation to the overall weight of the resulting toothpaste. The toothpaste was tested by a panel of sensorially trained experts under usage conditions. […] Since through the use of menthane carboxylic acid-N-(4-methoxyphenyl)-amide (WS-12) in combination with the further flavoring agents with a log-Kow value in the range of 1.5-5 (I-menthyl acetate, 1,8-cineole, cinnamaldehyde, and abovementioned corresponding proportions of peppermint oils) a strong reduction in bitterness (of the menthol) was achieved, it was advantageously possible to dispense with the use of anethole to reduce the bitterness. Apart from a pleasant, distinctly fresh, long-lasting taste impression, the toothpaste was also able to impart a distinct, sweet cinnamon note as a result of the proportion of cinnamaldehyde.
The flavoring agent compositions according to Example 4.1 (for a teeth cleaning compound for comparative purposes) and Example 4.2 (for a teeth cleaning compound according to the invention) were in each case incorporated with a concentration of 1.2 wt. %, in relation to the overall weight of the resulting toothpaste into a respective toothpaste mass, containing a proportion of 65 wt. % sodium bicarbonate. […]

[3] = Sensorial assessment of intensity and duration of the cooling sensation of freshness of toothpaste; type: in vivo; details: for intensity of coolness perceived: scale of 0 to 10, toothpaste with 1.2 wt. % flavoring composition of Example 1.2 containing 0.5 wt. % cooling agent; for duration of the cooling sensation of freshness: teeth cleaning compound / toothpaste, in words
Procedure: The proportion of menthane carboxylic acid-N-(4-methoxyphenyl)-amide (WS-12) in the 1st preparation of Example 1.2 was replaced by menthane-3-carboxylic acid-N-ethyl amide (WS-3).
The flavoring agent composition obtained was likewise incorporated into a standard toothpaste mass with a silicic acid base in a concentration of 1.2 wt. %, in relation to the overall weight of the resultant toothpaste.
as §1
The abscissa of FIG. 1 gives the time in minutes elapsing since cleaning of the teeth with the respective toothpaste.
The intensity of coolness perceived was rated on a scale of 0 to 10, with a value of “0” corresponding to the lowest or no intensity of coolness perceived and a value of “[…]” corresponding to the highest intensity of coolness perceived.

[4] = Solubility of WS-12; type: physicochemical; details: in words
From the text: In order to bring about the masking of the menthol to a sufficient extent, WS-12 must be dissolved in the flavoring agent composition of the teeth cleaning compound in a sufficient quantity. Our own preliminary investigations have shown that in certain conventional flavoring agent compositions the solubility of the WS-12 is so low that only an insufficient masking (reduction or decrease) in the negative taste impressions of the menthol can be achieved.

[5] = on the philtrum fold (upper lip); cited from earlier work
[6] = cited from earlier work
[7] = molecular target: cold receptor TRPM8 (Homo sapiens, UniProt Q7Z2W7); details: cited from earlier work
Chain of cold receptor TRPM8 (Q7Z2W7 whole entry): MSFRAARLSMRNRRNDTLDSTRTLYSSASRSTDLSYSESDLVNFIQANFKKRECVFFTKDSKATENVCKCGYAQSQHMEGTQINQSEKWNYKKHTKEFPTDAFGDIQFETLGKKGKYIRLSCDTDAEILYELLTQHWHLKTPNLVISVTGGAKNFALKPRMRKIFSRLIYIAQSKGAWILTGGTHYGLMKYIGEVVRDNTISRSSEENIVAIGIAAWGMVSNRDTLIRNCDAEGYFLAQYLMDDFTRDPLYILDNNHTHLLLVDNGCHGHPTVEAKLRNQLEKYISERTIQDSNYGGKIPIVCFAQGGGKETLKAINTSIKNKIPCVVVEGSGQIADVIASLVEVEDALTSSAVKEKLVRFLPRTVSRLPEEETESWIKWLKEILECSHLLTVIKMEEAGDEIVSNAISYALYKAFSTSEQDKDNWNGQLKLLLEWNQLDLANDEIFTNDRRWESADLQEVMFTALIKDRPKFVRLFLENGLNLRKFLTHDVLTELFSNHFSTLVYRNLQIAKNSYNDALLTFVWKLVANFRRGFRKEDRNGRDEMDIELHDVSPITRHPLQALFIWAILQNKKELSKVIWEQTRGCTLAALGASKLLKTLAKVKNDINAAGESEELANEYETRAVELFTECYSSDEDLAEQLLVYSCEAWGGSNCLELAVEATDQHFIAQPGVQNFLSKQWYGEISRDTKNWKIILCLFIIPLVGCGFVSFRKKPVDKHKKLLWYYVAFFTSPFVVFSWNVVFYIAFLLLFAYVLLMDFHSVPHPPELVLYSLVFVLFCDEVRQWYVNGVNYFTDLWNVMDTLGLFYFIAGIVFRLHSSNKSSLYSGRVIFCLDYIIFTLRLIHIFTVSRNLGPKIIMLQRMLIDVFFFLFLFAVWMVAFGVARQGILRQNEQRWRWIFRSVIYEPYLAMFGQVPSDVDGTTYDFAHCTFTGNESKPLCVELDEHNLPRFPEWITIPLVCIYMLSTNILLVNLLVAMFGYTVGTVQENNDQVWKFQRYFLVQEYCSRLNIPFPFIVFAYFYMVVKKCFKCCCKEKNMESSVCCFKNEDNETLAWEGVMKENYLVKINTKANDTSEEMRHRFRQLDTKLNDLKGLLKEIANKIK

| SMILES | relative cooling strength compared with L-menthol [1] | bitter-sharp note of the menthol / bitter perception [2] | intensity of coolness perceived ([3]; after 35 minutes) | duration of the cooling sensation of freshness [3] | further results |
| --- | --- | --- | --- | --- | --- |
| CC(C)[C@@H]1CC[C@@H](C)C[C@H]1O [L-menthol] | 100 |  |  |  |  |
| CCNC(=O)C1CC(C)CCC1C(C)C [WS-3, L-menthane carboxylic acid-N-ethyl amide] | 150 | hardly reduced | 0 | only for a relatively short time | reduction or masking of the bitterness or sharpness caused by menthol ([2]; addition to a conventional teeth cleaning compound containing menthol): did not lead to a significant reduction |
| CCOC(=O)CNC(=O)C1CC(C)CCC1C(C)C [WS-5, N^α-(L-menthane carbonyl)-glycine ethyl ester] | 400 |  |  |  |  |
| COc1ccc(NC(=O)C2CC(C)CCC2C(C)C)cc1 (stereo not shown) [WS-12, menthane carboxylic acid-N-(4-methoxyphenyl)-amide] | 150 | significantly reduced | 3 | comparatively long-lasting | intensity of coolness perceived ([3]; after 60 minutes): ~1.5; solubility [4]: relatively not readily soluble; cooling duration [5]: under one hour; duration of cooling effect on the upper lip ([6]; remaining on the upper lip): up to half an hour; cooling effect compared with WS-5 ([6]; upper lip): lower than WS-5; effect on the TRPM8 cold receptor [7]: stronger effect than WS-5; effect on the TRPM8 cold receptor ([7]; listed as menthane carboxylic acid-N-(4-methoxyphenyl)-amide): one of the strongest cooling substances |
| CC=Cc1ccc(OC)cc1 [anethole] |  | neutralized |  |  |  |
